Where a name gives a salt, the structure may show the parent alone.
How the values were obtained:
[1] = tested on: anaesthetized normotensive rats; experiment: In vivo blood pressure, anaesthetized normotensive rats, intravenous route; parameters: species or system rat; details: 0.3 mg/kg intravenous, 3 hours observation
Method: (§1) Antihypertensive effect of selected compounds according to the invention were studied for their ability to lower blood pressure in anaesthetized and conscious normotensive and spontaneously hypertensive rats via intravenous, oral and intraduodenal routes.
Male wistar rats were anaesthetized with urethane (2.5 g/kg). Femoral vein and carotid artery were cannulated. Blood pressure and heart rate were recorded using Statham pressure transducer. Data was recorded on Grass polygraph as well as using online data acquisition system (Buxco AT). Intravenously administered compounds of the invention were initially tested at 0.3 mg/kg over a period of 3 hours for their effect on blood pressure and the results are shown in Table 1. For a select few of the compounds, the blood pressure lowering effect upon intravenous administration was also studied at dosages of 0.03, 0.1, 0.3, and 1 mg/kg.

α1-adrenergic = details: cited from earlier work
[2] = tested on: conscious spontaneously hypertensive rats; experiment: Systolic blood pressure in conscious spontaneously hypertensive rats, oral; format: in vivo, rat
Method: Spontaneously hypertensive rats weighing between 250-300 g were used in this study. Rats were fasted overnight. Blood pressure was monitored from tail artery using semi-automatic noninvasive blood pressure monitoring apparatus. Compounds of the present invention (at dosages of 1, 3, 10, and 30 mg/kg) were administered orally. Blood pressure was monitored prior to and 1.5, 4, 6 and 24 hours after drug administration.

Potassium Channel = experiment: In vitro receptor selectivity, rat aorta; format: cell-based; details: NE: No effect
Method: (§2) Selectivity of action of the present compounds was tested against a range of different receptors, e.g., β1- and α2-adrenergic, muscarinic cholinergic, serotoninergic (5-HT2A), histaminergic (H1), angiotensin II, endothelin (ETA and B,), as well as calcium and potassium channels. Rat aorta was used to study the effect of the compounds on 5-HT2A, ETA, calcium and potassium channels. Angiotensin II receptor antagonistic activity was studied in rabbit aorta. Muscarinic cholinergic receptor and ETB receptor antagonistic activity was studied in rat trachea, while guinea pig trachea was used to study H1 receptor antagonistic activity. Electrically stimulated rat vas deferens was used to investigate the effect of α2-adrenoceptors, while β1-adrenoceptor antagonistic activity was studied using electrically stimulated rat ventricular strips. Results of this selectivity study is shown in (Table 2).

anaesthetized dogs = experiment: In vivo selectivity study, phenylephrine-induced blood pressure and intraurethral pressure in anaesthetized dogs; parameters: species or system dog; details: iv, against phenylephrine dose response
Method: Male mongrel dogs (12-20 Kg) were anaesthetized with pentobarbitone sodium (35 mg/kg, iv). Trachea was intubated for artificial respiration. Femoral artery and femoral vein were cannulated for recording blood pressure and for administration of drug solutions, respectively. Blood pressure was recorded on a polygraph through a pressure transducer. A paramedian incision was made lateral to the penis and the bladder was exposed. Urine was drained through a cannula put directly into the bladder and it was guided into the urethra gently and was placed at the prostatic urethra. Balloon was inflated with 2 cc air and its placement was confirmed by digital pressure. Intraurethral pressure was recorded on the polygraph through a pressure transducer. Graded dose response relationship of phenylephrine (1-16 μg/kg, iv) was obtained on prostatic pressure and blood pressure, prior to administration of the compounds of the present invention. Compounds 2, 9, and 13 (at dosages of 0.01, 0.03, 0.1, and 0.3 mg/kg) were administered intravenously 10 min before obtaining phenylephrine dose response curves. Results were analyzed and pseudo pKB values were calculated as described in Kenny et al (1996).

[3] = tested on: conscious freely moving normotensive rats; experiment: Mean arterial blood pressure in conscious freely moving normotensive rats, oral; format: in vivo, rat
Method: Femoral artery of normotensive male wistar rats, maintained on an overnight light diet, were catheterized under pentobarbitone anaesthesia (35 mg/kg). Femoral artery catheter was exteriorized through the neck region for blood pressure recording. […] Blood pressure and heart rate were recorded with the help of Statham pressure transducer on a Grass polygraph and the results are shown in Table 4.

[4] = biological target: Muscarinic cholinergic receptor (Rattus norvegicus, UniProt P08483); experiment: In vitro receptor selectivity, rat trachea; format: cell-based
Method: as §2

[5] = tested on: anaesthetized normotensive rats; experiment: Mean arterial pressure in anaesthetized normotensive rats, intraduodenal route; format: in vivo, rat
Method: as §1
Male wistar rats were fasted for 18 hours. Rats were anaesthetized with urethane. Femoral vein and carotid artery were cannulated. A catheter was placed in the duodenum following lapratomy. The compounds of the present invention (at dosages of 0.3, 1, 3 and 10 mg/kg) were administered in the duodenum and blood pressure was monitored for 3 hours.

Sequence of Muscarinic cholinergic receptor (P08483 whole entry): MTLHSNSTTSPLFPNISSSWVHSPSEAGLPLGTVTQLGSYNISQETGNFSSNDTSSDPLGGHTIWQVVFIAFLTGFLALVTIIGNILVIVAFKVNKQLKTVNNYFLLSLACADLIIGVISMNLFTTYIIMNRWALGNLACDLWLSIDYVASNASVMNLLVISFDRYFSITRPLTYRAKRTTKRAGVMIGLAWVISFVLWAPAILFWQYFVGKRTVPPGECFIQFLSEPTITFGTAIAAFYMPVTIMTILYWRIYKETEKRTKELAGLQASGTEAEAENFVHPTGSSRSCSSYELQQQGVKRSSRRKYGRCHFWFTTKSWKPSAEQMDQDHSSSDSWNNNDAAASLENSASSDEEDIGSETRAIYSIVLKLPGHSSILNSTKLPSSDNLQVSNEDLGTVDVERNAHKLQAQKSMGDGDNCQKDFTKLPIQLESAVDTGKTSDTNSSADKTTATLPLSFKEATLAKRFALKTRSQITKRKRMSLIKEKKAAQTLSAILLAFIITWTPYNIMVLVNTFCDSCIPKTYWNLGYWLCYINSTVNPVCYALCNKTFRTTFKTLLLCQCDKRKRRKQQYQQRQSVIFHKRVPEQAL

## O=C1CCCC(=O)N1CCCN1CCN(c2ccc(F)cc2)CC1 [Compound 14, 1-[4-(4-Fluorophenyl)piperazin-1-yl]-3-(2,6-dioxopiperidin-1-yl)propane]
other
  melting point: 200 to 202 °C
[1]
  Duration: 60.0 min
  In Vivo BP Fall in mmHg: 20.0 mmHg

## Cc1ccccc1N1CCN(CCCN2C(=O)CCCC2=O)CC1 (as salt: hydrochloride) [Compound 18, 1-[4-(2-Methylphenyl)piperazin-1-yl]-3-(2,6-dioxopiperidin-1-yl)propane]
other
  melting point: 206 to 207 °C

## O=C1CCCC(=O)N1CCCN1CCN(c2ccccc2F)CC1 [Compound 17, 1-[4-(2-Fluorophenyl)piperazin-1-yl]-3-(2,6-dioxopiperidin-1-yl)propane]
[1]
  Duration: 120.0 min
  In Vivo BP Fall in mmHg: 50.0 mmHg

## COc1cc2nc(N3CCN(C(=O)c4ccco4)CC3)nc(N)c2cc1OC [prazosin]
α1-adrenergic
  α1-adrenergic blocking activity (pKi): > 8

## COc1ccccc1N1CCN(CCCN2C(=O)CCC2=O)CC1 (as salt: hydrochloride) [Compound 2, 1-[4-(2-Methoxyphenyl)piperazin-1-yl]-3-(2,5-dioxopyrrolidin-1-yl)propane]
other
  melting point: 199 to 202 °C

## O=C1CCCC(=O)N1CCCN1CCN(c2ccc(Cl)cc2)CC1 (as salt: hydrochloride) [Compound 15, 1-[4-(4-Chlorophenyl)piperazin-1-yl]-3-(2,6-dioxopiperidin-1-yl)propane]
other
  melting point: 206 to 208 °C

## COc1ccccc1N1CCN(CCCN2C(=O)CCCC2=O)CC1 [Compound 13, 1-[4-(2-Methoxyphenyl)piperazin-1-yl]-3-(2,6-dioxopiperidin-1-yl)propane]
[2]; 1 mg/kg oral
  Systolic Pressure (% Change from basal) (at 6 hours): −7.0%
[2]; 3 mg/kg oral
  Systolic Pressure (% Change from basal) (at 6 hours): −18.0%
[2]; 10 mg/kg oral
  Systolic Pressure (% Change from basal) (at 6 hours): −19.0%
[2]; 30 mg/kg oral
  Systolic Pressure (% Change from basal) (at 6 hours): −14.0%
Potassium Channel
  pKB Potassium Channel: 5
Anaesthetized dogs
  pseudo pKB Blood Pressure: 7.1
  pseudo pKB Intraurethral Pressure: 8.1
[3]; 1 mg/kg oral
  Mean Arterial Pressure (% Change from basal): −5%
[3]; 3 mg/kg oral
  Mean Arterial Pressure (% Change from basal): −10%
[4]
  pKB Muscarinic: 5.5
[5]; 1 mg/kg intraduodenal
  Duration of Action: <3.0 h
  Mean Arterial Pressure (% Change from basal): −32%
[5]; 3 mg/kg intraduodenal
  Duration of Action: >3.0 h
  Mean Arterial Pressure (% Change from basal): −40%
[5]; 10 mg/kg intraduodenal
  Duration of Action: >3.0 h
  Mean Arterial Pressure (% Change from basal): −42%
[1]
  Duration: >180 min
  In Vivo BP Fall in mmHg: 50.0 mmHg

## COc1ccccc1N1CCN(CCCCN2C(=O)CCC2=O)CC1 [Compound 9, 1-[4-(2-Methoxyphenyl)piperazin-1-yl]-4-(2,5-dioxopyrrolidin-1-yl)butane]
[2]; 1 mg/kg oral
  Systolic Pressure (% Change from basal) (at 6 hours): −0.4%
[2]; 3 mg/kg oral
  Systolic Pressure (% Change from basal) (at 6 hours): −7.0%
[2]; 10 mg/kg oral
  Systolic Pressure (% Change from basal) (at 6 hours): −24.0%
[2]; 30 mg/kg oral
  Systolic Pressure (% Change from basal) (at 6 hours): −25.0%
Anaesthetized dogs
  pseudo pKB Blood Pressure: 7.4
  pseudo pKB Intraurethral Pressure: 7.9
[3]; 1 mg/kg oral
  Mean Arterial Pressure (% Change from basal): −4%
[3]; 10 mg/kg oral
  Mean Arterial Pressure (% Change from basal): −11%
[4]
  pKB Muscarinic: 5.0
[5]; 1 mg/kg intraduodenal
  Duration of Action: >3.0 h
  Mean Arterial Pressure (% Change from basal): −19%
[5]; 3 mg/kg intraduodenal
  Duration of Action: >3.0 h
  Mean Arterial Pressure (% Change from basal): −53%
[5]; 10 mg/kg intraduodenal
  Duration of Action: >3.0 h
  Mean Arterial Pressure (% Change from basal): −57%
[1]
  Duration: >180 min
  In Vivo BP Fall in mmHg: 46 mmHg

## O=C1CCC(=O)N1CCCN1CCN(c2ccc(F)cc2)CC1 [Compound 1, 1-[4-(4-Fluorophenyl)piperazin-1-yl]-3-(2,5-dioxopyrrolidin-1-yl)propane]
[1]
  Duration: 15.0 min
  In Vivo BP Fall in mmHg: 5.0 mmHg

## COc1ccccc1N1CCN(CCCN2C(=O)CCC2=O)CC1 [Compound 2, 1-[4-(2-Methoxyphenyl)piperazin-1-yl]-3-(2,5-dioxopyrrolidin-1-yl)propane]
[2]; 1 mg/kg oral
  Systolic Pressure (% Change from basal) (at 6 hours): −7.0%
[2]; 3 mg/kg oral
  Systolic Pressure (% Change from basal) (at 6 hours): −12.0%
[2]; 10 mg/kg oral
  Systolic Pressure (% Change from basal) (at 6 hours): −13.0%
[2]; 30 mg/kg oral
  Systolic Pressure (% Change from basal) (at 6 hours): −17.0%
Anaesthetized dogs
  pseudo pKB Blood Pressure: 6.9
  pseudo pKB Intraurethral Pressure: 7.60
[3]; 3 mg/kg oral
  Mean Arterial Pressure (% Change from basal): −14%
[3]; 10 mg/kg oral
  Mean Arterial Pressure (% Change from basal): −10%
[4]
  pKB Muscarinic: 5.0
[5]; 1 mg/kg intraduodenal
  Duration of Action: >2.5 h
  Mean Arterial Pressure (% Change from basal): −19%
[5]; 3 mg/kg intraduodenal
  Duration of Action: >2.5 h
  Mean Arterial Pressure (% Change from basal): −43%
[5]; 10 mg/kg intraduodenal
  Duration of Action: >2.5 h
  Mean Arterial Pressure (% Change from basal): −42%
[1]
  Duration: 120.0 min
  In Vivo BP Fall in mmHg: 25 mmHg

## Cc1ccccc1N1CCN(CCCN2C(=O)CCCC2=O)CC1 [Compound 18, 1-[4-(2-Methylphenyl)piperazin-1-yl]-3-(2,6-dioxopiperidin-1-yl)propane]
[1]
  Duration: >150 min
  In Vivo BP Fall in mmHg: 40.0 mmHg

## O=C1CCC(=O)N1CCCN1CCN(c2ccc(F)cc2)CC1 (as salt: hydrochloride) [Compound 1, 1-[4-(4-Fluorophenyl)piperazin-1-yl]-3-(2,5-dioxopyrrolidin-1-yl)propane]
other
  melting point: 246 to 247 °C
